Experimental data from ChEMBL document CHEMBL5226325, “Optimization of a Screening Hit toward M2912, an Oral Tankyrase Inhibitor with Antitumor Activity in Colorectal Cancer Models” (J Med Chem, 2021).
The source made the active and inactive calls. The calls are words filed in the database; no cut-off is given here.

Legend:
[1] = Unbound fraction in dog plasma; format: ADME, cell-free, Canis lupus familiaris
[2] = Half life in monkey; format: ADME, Macaca mulatta; details: rhesus monkey, in vivo
[3] = Toxicity in CB17-SCID mouse xenografted with human COLO 320 cells assessed as drug tolerance at 15 mg/kg, po administered twice daily via gavage for 20 days; format: organism-based; details: in vivo, 480 h, time 20 day
[4] = target: Poly [ADP-ribose] polymerase 1 (Homo sapiens, UniProt P09874); test: Inhibition of PARP-1 (unknown origin) using biotinylated NAD and NAD as substrate assessed as inhibition of auto-PARsylation incubated for 150 mins by TR-FRET assay
Chain of Poly [ADP-ribose] polymerase 1 (P09874 whole entry): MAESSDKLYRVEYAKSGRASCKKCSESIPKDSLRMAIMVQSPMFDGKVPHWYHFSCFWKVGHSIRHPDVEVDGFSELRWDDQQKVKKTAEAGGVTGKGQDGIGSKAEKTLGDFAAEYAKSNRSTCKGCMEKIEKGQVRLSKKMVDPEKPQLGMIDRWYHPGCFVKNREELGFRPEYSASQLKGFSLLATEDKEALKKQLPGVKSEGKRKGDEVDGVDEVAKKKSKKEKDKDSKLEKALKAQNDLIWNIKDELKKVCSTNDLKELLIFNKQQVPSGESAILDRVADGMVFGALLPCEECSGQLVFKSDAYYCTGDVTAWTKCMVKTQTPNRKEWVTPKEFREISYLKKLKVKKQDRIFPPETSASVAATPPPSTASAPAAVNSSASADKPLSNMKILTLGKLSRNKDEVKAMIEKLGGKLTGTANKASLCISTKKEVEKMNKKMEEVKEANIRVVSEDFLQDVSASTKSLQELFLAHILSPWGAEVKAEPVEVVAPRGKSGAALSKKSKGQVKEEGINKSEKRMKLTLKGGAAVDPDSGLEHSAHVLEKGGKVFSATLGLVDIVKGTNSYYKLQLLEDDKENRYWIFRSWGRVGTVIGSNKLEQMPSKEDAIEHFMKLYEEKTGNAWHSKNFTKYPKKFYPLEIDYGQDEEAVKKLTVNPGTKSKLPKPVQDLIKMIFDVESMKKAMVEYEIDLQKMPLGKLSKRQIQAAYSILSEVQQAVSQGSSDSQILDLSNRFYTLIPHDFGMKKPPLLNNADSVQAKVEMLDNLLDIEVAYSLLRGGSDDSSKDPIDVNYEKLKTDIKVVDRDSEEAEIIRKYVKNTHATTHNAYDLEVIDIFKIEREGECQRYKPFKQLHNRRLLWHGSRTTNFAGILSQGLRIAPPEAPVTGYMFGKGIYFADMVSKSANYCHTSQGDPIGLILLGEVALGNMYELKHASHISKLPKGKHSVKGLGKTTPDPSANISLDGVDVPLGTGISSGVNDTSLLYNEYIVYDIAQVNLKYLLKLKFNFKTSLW

[5] = target: Protein mono-ADP-ribosyltransferase PARP10 (Homo sapiens, UniProt Q53GL7); test: Inhibition of human PARP10 by chemiluminescence assay
[6] = In vivo inhibition of Wnt pathway in Hsd athymic nude mouse xenografted with human DLD1 cells assessed as reduction in beta-catenin level in tumor at 10 to 30 mg/kg, po administered as single dose and measured after 8 hrs; format: functional, organism-based; details: DLD-1, dose 10-30 mg/kg
[7] = target: Sodium-dependent dopamine transporter (Homo sapiens, UniProt Q01959); test: Inhibition of dopamine transporter (unknown origin); format: toxicity
Chain of Sodium-dependent dopamine transporter (Q01959 whole entry): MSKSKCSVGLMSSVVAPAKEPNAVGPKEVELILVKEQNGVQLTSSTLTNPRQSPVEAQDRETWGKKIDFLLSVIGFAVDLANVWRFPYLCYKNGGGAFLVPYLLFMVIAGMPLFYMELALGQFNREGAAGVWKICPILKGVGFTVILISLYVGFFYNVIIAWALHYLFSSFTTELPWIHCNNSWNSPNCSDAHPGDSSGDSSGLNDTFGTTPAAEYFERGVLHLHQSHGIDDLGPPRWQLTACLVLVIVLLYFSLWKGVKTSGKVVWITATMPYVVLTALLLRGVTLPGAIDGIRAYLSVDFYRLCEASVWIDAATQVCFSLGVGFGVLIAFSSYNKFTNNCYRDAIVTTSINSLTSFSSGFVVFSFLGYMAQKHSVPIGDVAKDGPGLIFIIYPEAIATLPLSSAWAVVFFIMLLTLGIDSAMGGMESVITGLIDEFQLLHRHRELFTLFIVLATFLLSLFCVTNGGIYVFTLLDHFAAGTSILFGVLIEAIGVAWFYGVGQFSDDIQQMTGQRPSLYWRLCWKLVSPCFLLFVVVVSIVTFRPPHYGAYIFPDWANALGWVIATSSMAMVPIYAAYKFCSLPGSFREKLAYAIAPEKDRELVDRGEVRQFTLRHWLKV

[8] = Unbound fraction in monkey plasma; format: ADME, cell-free, Macaca mulatta; details: rhesus monkey
[9] = target: Protein mono-ADP-ribosyltransferase PARP3 (Homo sapiens, UniProt Q9Y6F1); test: Inhibition of N-terminal GST-fused human recombinant PARP3 (2 to 540 residues) expressed in Sf9 insect cells by chemiluminescence assay
Chain of Protein mono-ADP-ribosyltransferase PARP3 (Q9Y6F1 whole entry, the tested form may be a part): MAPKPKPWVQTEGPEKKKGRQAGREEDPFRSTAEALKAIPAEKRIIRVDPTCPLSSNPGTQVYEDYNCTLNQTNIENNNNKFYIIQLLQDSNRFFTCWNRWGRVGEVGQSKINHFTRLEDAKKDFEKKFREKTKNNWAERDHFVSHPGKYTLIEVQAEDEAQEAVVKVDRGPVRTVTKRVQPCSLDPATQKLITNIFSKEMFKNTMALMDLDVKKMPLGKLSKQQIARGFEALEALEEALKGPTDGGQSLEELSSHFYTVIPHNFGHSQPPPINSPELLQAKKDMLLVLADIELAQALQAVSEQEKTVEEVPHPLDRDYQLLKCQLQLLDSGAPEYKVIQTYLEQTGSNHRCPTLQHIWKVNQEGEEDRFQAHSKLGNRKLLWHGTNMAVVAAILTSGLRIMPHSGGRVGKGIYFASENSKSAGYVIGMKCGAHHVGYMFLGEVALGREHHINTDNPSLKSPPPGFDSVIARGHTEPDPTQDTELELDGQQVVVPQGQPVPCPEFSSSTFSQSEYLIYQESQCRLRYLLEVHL

[10] = test system: COLO 320; test: Antitumor activity against human COLO 320 cells xenografted in CB17-SCID mouse assessed as tumor growth inhibition at 20 mg/kg, po, administered twice daily via gavage and measured twice weekly; format: functional, organism-based
[11] = Volume of distribution at steady state in dog; format: ADME, Canis lupus familiaris; details: in vivo, read-out: Vdss
[12] = Volume of distribution at steady state in rat; format: ADME; details: in vivo, read-out: Vdss
[13] = test system: HT55; test: Antitumor activity against human HT55 cells xenografted in CD-1 nude mouse assessed as tumor growth inhibition at 20 mg/kg, po, administered twice daily via gavage and measured twice weekly; format: functional, organism-based
[14] = Unbound fraction in rat plasma; format: ADME, cell-free
[15] = Volume of distribution at steady state in mouse; format: ADME, organism-based; details: in vivo, read-out: Vdss
[16] = Toxicity in CB17-SCID mouse xenografted with human COLO 320 cells assessed as reduction in body weight at 20 mg/kg, po administered twice daily via gavage for 20 days and measured twice weekly; format: organism-based; details: in vivo, 480 h, time 20 day
[17] = Oral bioavailability in rat; format: ADME, organism-based; details: in vivo
[18] = target: CYP450 (Homo sapiens, UniProt P04798+P05177+P05181+P08684+P10632+P10635+P11509+P11712+P13584+P20813+P20815+P20853+P24462+P24903+P33260+P33261+P51589+P78329+P98187+Q02928+Q08477+Q16678+Q16696+Q5TCH4+Q6VVX0+Q7Z449+Q8TAV3+Q96SQ9+Q9HB55); test: Inhibition of CYP450 (unknown origin); format: ADME, protein assay
[19] = test system: HT55; test: Cytotoxicity against human HT55 cells assessed as reduction in cell growth incubated for 14 days by resazurin dye based assay; format: functional; details: time 14.0 day
[20] = Toxicity in CD-1 nude mouse xenografted with human HT55 cells assessed as drug tolerance at 15 mg/kg, po administered twice daily via gavage for 20 days; format: organism-based; details: in vivo, 480 h, time 20 day
[21] = Modulation of Wnt/beta-catenin signaling pathway in human DLD-1 cells assessed as induction of AXIN2 accumulation incubated for 24 hrs by ELISA; format: cell-based; details: DLD-1, 24 h
[22] = target: Protein mono-ADP-ribosyltransferase TIPARP (Homo sapiens, UniProt Q7Z3E1); test: Inhibition of N-terminal FLAG-tagged human recombinant PARP7 (400 to 657 residues) expressed in Sf9 insect cells by chemiluminescence assay
Chain of Protein mono-ADP-ribosyltransferase TIPARP (Q7Z3E1 whole entry, the tested form may be a part): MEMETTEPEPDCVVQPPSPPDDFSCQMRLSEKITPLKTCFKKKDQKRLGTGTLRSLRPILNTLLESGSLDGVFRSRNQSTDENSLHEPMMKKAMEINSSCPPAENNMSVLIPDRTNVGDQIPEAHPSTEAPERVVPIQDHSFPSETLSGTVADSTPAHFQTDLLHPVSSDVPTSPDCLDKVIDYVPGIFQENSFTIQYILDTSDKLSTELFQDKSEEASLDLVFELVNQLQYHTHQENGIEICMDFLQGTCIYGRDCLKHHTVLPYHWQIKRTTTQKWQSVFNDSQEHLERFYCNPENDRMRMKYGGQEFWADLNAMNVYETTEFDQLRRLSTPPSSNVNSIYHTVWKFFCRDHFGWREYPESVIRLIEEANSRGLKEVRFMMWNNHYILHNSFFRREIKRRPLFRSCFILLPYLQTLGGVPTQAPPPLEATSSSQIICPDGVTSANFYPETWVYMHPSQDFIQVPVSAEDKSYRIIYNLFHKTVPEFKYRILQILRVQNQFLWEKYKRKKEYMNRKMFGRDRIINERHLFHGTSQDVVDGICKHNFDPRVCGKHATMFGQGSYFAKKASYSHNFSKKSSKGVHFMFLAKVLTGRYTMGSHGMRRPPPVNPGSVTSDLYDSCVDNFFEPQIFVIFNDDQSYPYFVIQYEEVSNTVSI

[23] = test system: COLO 320; test: Cytotoxicity against human COLO 320 cells assessed as reduction in cell growth incubated for 14 days by resazurin dye based assay; format: functional; details: time 14.0 day
[24] = In vivo inhibition of Wnt pathway in Hsd athymic nude mouse xenografted with human DLD1 cells assessed as increase in tankyrase protein level in tumor at 10 to 30 mg/kg, po administered as single dose and measured after 18 hrs; format: functional, organism-based; details: DLD-1, dose 10-30 mg/kg
[25] = test system: HCT-15; test: Cytotoxicity against human HCT-15 cells assessed as reduction in cell growth at 0.01 to 10 uM incubated for 14 days by resazurin dye based assay; format: functional; details: dose 0.01-10 µM, time 14.0 day
[26] = In vivo inhibition of Wnt pathway in Hsd athymic nude mouse xenografted with human DLD1 cells assessed as increase in axin2 protein level in tumor at 10 to 30 mg/kg, po administered as single dose and measured after 2 to 8 hrs; format: functional, organism-based; details: DLD-1, dose 10-30 mg/kg, time 2-8 hrs
[27] = Toxicity in […] xenografted with human HT55 cells assessed as reduction in body weight at 20 mg/kg, po administered twice daily via gavage for 20 days and measured twice weekly; format: organism-based; details: in vivo, 480 h, time 20 day
[28] = target: Protein mono-ADP-ribosyltransferase PARP8 (Homo sapiens, UniProt Q8N3A8); test: Inhibition of human PARP8 by chemiluminescence assay
Chain of Protein mono-ADP-ribosyltransferase PARP8 (Q8N3A8 whole entry): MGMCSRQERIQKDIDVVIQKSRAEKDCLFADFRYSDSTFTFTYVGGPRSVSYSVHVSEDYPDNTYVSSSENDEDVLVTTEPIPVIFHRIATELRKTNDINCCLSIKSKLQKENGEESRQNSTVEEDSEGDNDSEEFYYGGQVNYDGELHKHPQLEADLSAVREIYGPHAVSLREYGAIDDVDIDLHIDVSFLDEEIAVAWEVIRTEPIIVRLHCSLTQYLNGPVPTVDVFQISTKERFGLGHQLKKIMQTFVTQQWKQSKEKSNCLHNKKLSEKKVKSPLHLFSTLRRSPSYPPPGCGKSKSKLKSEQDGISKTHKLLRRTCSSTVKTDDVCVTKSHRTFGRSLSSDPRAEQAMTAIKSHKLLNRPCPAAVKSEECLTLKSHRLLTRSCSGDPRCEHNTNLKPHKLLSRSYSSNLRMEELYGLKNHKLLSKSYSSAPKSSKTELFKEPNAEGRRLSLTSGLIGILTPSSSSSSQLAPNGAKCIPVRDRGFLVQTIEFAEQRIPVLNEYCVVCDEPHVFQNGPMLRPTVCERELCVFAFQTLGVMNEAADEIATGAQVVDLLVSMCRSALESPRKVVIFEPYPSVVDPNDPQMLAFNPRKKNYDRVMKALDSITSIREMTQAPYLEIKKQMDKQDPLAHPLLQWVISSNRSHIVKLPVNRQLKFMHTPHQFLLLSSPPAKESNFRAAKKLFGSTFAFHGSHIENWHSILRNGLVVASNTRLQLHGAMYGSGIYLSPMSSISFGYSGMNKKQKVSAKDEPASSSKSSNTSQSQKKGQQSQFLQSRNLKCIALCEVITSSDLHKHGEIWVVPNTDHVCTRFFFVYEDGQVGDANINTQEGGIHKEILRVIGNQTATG

[29] = Unbound fraction in mouse plasma; format: ADME, cell-free
[30] = target: Poly [ADP-ribose] polymerase tankyrase-1 (Homo sapiens) (UniProt O95271); test: Inhibition of tankyrase-mediated auto-PARsylation in human DLD-1 cells assessed as increase in tankyrase accumulation incubated for 24 hrs; format: cell-based
Chain of Poly [ADP-ribose] polymerase tankyrase-1 (Homo sapiens) (O95271 whole entry, the tested form may be a part): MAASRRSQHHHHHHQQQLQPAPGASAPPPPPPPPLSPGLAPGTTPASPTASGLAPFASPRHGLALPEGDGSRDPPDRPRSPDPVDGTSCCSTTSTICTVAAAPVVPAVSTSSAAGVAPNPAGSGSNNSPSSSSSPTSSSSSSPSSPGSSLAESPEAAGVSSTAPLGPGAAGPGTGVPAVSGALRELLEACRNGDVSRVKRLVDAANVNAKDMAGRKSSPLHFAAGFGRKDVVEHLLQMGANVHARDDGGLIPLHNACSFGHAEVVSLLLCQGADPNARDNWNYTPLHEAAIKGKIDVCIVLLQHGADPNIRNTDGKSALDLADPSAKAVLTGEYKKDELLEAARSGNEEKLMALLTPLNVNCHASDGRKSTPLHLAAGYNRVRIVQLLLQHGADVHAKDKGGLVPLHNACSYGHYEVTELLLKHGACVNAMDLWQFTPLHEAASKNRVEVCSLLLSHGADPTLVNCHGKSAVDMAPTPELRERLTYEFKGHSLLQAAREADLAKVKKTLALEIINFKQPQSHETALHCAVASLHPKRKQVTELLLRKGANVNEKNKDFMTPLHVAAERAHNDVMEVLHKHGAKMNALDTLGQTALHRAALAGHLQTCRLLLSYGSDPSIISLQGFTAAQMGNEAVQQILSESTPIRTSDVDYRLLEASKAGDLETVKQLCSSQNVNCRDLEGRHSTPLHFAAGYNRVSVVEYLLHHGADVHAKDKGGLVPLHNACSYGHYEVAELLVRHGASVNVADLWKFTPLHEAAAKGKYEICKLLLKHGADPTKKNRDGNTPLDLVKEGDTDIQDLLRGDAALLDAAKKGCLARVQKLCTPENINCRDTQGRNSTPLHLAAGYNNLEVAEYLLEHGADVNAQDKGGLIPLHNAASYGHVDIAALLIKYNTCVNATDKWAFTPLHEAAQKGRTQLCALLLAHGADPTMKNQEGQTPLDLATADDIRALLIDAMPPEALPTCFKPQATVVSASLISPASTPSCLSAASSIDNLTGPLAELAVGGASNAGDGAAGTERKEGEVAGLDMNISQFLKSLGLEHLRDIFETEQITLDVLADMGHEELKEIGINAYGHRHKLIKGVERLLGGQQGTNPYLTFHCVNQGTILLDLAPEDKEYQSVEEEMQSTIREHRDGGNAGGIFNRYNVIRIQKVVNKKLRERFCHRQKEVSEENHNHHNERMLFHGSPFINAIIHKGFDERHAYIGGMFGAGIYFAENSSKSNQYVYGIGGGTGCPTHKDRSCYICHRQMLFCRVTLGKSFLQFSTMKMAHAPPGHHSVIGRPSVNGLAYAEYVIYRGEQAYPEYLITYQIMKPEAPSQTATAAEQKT

[31] = target: Poly [ADP-ribose] polymerase 2 (Homo sapiens, UniProt Q9UGN5); test: Inhibition of N-terminal GST-tagged human recombinant PARP2 (2 to 583 residues) expressed in baculovirus infected Sf9 insect cells by chemiluminescence assay

Question: With `Cc1ccc2c(=O)[nH]c(-c3ccc(C(C)(C)O)cc3)cn12` as the compound, how does the fraction unbound [1] read?
Answer: 0.14

Question: And the half-life [2]?
Answer: 1.01 h

Question: What about the Activity [3] of the same compound?
Answer: Non-Toxic

Question: What about the IC50 [4] of the same compound?
Answer: 928 nM

Question: What about the IC50 [5] of the same compound?
Answer: 2900 nM

Question: What about the inhibition [6] of the same compound?
Answer: Active

Question: What about the IC50 [7] of the same compound?
Answer: 19000 nM

Question: What about the fraction unbound [8] of the same compound?
Answer: 0.21

Question: And the IC50 [9]?
Answer: 110 nM

Question: And the Activity [10]?
Answer: Active

Question: What about the Vd [11] of the same compound?
Answer: 2.17 L/kg

Question: What about the Vd [12] of the same compound?
Answer: 0.91 L/kg

Question: And the Activity [13]?
Answer: Active

Question: And the fraction unbound [14]?
Answer: 0.13

Question: And the Vd [15]?
Answer: 2.43 L/kg

Question: What about the Activity [16] of the same compound?
Answer: Non-Toxic

Question: And the bioavailability [17]?
Answer: 41%

Question: And the IC50 [18]?
Answer: > 50000 nM

Question: What about the Activity [19] of the same compound?
Answer: Dose-Dependent Effect

Question: And the Activity [20]?
Answer: Non-Toxic

Question: And the EC50 [21]?
Answer: 16 nM

Question: And the IC50 [22]?
Answer: 330 nM

Question: And the Activity [23]?
Answer: Dose-Dependent Effect

Question: What about the inhibition [24] of the same compound?
Answer: inactive

Question: And the Activity [25]?
Answer: inactive

Question: And the inhibition [26]?
Answer: Active

Question: What about the Activity [27] of the same compound?
Answer: Non-Toxic

Question: And the IC50 [28]?
Answer: 1300 nM

Question: And the fraction unbound [29]?
Answer: 0.16

Question: What about the inhibition [30] of the same compound?
Answer: Active

Question: What about the IC50 [31] of the same compound?
Answer: 200 nM
